The assay deals with T1, MAGL protein (Homo sapiens, UniProt Q99685).
T1 sequence (Q99685 1-303): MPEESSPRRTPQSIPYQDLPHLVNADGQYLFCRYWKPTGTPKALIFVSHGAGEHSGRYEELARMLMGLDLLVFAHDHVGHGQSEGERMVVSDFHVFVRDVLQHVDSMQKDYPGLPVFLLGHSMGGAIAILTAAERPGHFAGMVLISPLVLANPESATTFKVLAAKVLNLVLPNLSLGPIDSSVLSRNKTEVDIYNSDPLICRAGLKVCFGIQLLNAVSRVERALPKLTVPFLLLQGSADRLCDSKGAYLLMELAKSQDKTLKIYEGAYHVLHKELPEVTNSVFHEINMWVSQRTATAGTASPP
Put plainly: 2-AG assay: MAGL inhibitory activity by hydrolysis of 2-arachidonoylglycerol to arachidonic acid, followed by mass spectrometry. The class given is biochemical. The conditions noted are these: 8 μM 2-arachidonoylglycerol, 15 min preincubation, 30 min reaction at RT, RapidFire MS readout. The method in brief:
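MAGL was preincubated 15 min at RT with compound (12.5 to […], 3-fold steps) in 50 mM TRIS, 1 mM EDTA, 0.01% Tween-20, 2.5% DMSO. The reaction ran 30 min at RT with 8 μM 2-AG. Arachidonic acid was quantified by RapidFire SPE-MS/MS against a d8-arachidonic acid internal standard.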

The compound `O=C(N1CC(NCc2ccc(C(F)(F)F)cc2Cl)C1)N1CC2(CC(c3nnc(C4CC4)[nH]3)C2)C1` [compound 190] yielded an IC50 of 12.6 nM. Take `O=C(N1CC(NCc2ccc(OC(F)(F)F)cc2)C1)N1CC2(CC(c3nnc(C4CC4)[nH]3)C2)C1` [compound 191]: half-maximal inhibition (IC50) required 45.6 nM. The figure for `O=C(N1CC(NCc2ccc(C(F)(F)F)cc2F)C1)N1CC2(CC(c3nnc(C4CC4)[nH]3)C2)C1` [compound 192] is 23.2 nM; for `O=C(N1CC(NCc2ccc(C(F)(F)F)c(F)c2)C1)N1CC2(CC(c3nnc(C4CC4)[nH]3)C2)C1` [compound 193] it is 45.5 nM; for `O=C(N1CC(NCc2cc(Cl)cc(C(F)(F)F)c2)C1)N1CC2(CC(c3nnc(C4CC4)[nH]3)C2)C1` [compound 194] it is 18.4 nM. For the compound `O=C(N1CC(NCc2cc(C(F)(F)F)ccc2F)C1)N1CC2(CC(c3nnc(C4CC4)[nH]3)C2)C1` [compound 195], 130 nM corresponded to half-maximal inhibition (IC50). `O=C(N1CC(NCc2ccc(F)cc2C(F)(F)F)C1)N1CC2(CC(c3nnc(C4CC4)[nH]3)C2)C1` [compound 196]: half-maximal inhibition (IC50) was put at 111 nM. The figure for `COc1cc(C(F)(F)F)ccc1CNC1CN(C(=O)N2CC3(CC(c4nnc(C5CC5)[nH]4)C3)C2)C1` [compound 197] is 15.6 nM; for `O=C(N1CC(NCc2ccc(C(F)(F)F)cc2F)C1)N1CC2(CC(c3nnc(C4(O)CC4)[nH]3)C2)C1` [compound 198] it is 177 nM. The figure for `O=C(N1CC(NCc2cc(Cl)ccc2C(F)(F)F)C1)N1CC2(CC(c3nnc(C4CC4)[nH]3)C2)C1` [compound 199] is 31.9 nM.

The compound `O=C(N1CC(N(Cc2ccc(C(F)(F)F)cc2F)C2CC2)C1)N1CC2(CC(c3nnc(C4CC4)[nH]3)C2)C1` [compound 200] showed an IC50 of 69.7 nM. The value for `O=C(N1CC(N(Cc2ccc(C(F)(F)F)cc2F)CC2CC2)C1)N1CC2(CC(c3nnc(C4CC4)[nH]3)C2)C1` [compound 201] was 17 nM; that for `O=C(N1CC(NS(=O)(=O)c2cccc(C(F)(F)F)c2)C1)N1CC2(CC(c3nnc(C4CC4)[nH]3)C2)C1` [compound 202] was 332 nM; that for `O=C(N1CC(NS(=O)(=O)c2ccc(C(F)(F)F)cc2F)C1)N1CC2(CC(c3nnc(C4CC4)[nH]3)C2)C1` [compound 203] was 363 nM. The figure for `O=C(N1CC(NS(=O)(=O)C2CCC(F)(F)CC2)C1)N1CC2(CC(c3nnc(C4CC4)[nH]3)C2)C1` [compound 204] is 1360 nM. The figure for `O=C(N1CC(NS(=O)(=O)c2cccc(OC(F)(F)F)c2)C1)N1CC2(CC(c3nnc(C4CC4)[nH]3)C2)C1` [compound 205] is 155 nM; for `O=C(N1CC(NCc2ccc(C(F)(F)F)cc2F)C1)N1CC2(CC(c3nnc(C4CCC4)[nH]3)C2)C1` [compound 206] it is 232 nM. In turn, `O=C(N1CC(n2cc(OCC(F)(F)F)cn2)C1)N1CC2(CC(c3nnc(C4CC4)[nH]3)C2)C1` [compound 207] showed an IC50 of 60.3 nM. The value for `O=C(N1CC(CNS(=O)(=O)c2cccc(C(F)(F)F)c2)C1)N1CC2(CC(c3nnc(C4CC4)[nH]3)C2)C1` [compound 208] was 21.6 nM. The value for `O=C(N1CC(CNS(=O)(=O)c2ccc(C(F)(F)F)cc2)C1)N1CC2(CC(c3nnc(C4CC4)[nH]3)C2)C1` [compound 209] was 316 nM; that for `O=C(N1CC(CNS(=O)(=O)c2ccc(C(F)(F)F)cc2)C1)N1CC2(CC(c3nnc(C4(O)CC4)[nH]3)C2)C1` [compound 210] was 482 nM. The value for `O=C(N1CC(CNS(=O)(=O)c2cccc(C(F)(F)F)c2)C1)N1CC2(CC(c3nnc(C4(O)CC4)[nH]3)C2)C1` [compound 211] was 136 nM; that for `CC(C)(C)CS(=O)(=O)N1CC2(CN(C(=O)N3CC4(CC(c5nnc(C6CC6)[nH]5)C4)C3)C2)C1` [compound 212] was 58.1 nM; that for `CC1(NS(=O)(=O)N2CC3(CN(C(=O)N4CC5(CC(c6nnc(C7CC7)[nH]6)C5)C4)C3)C2)CC1` [compound 213] was 45 nM. Compound `O=C(N1CC2(CC(c3nnc(C4CC4)[nH]3)C2)C1)N1CC2(C1)CN(S(=O)(=O)NCc1ccc(F)cc1)C2` [compound 214] registered an IC50 of 19.9 nM. Consider `O=C(N1CC2(CC(c3nnc(C4CC4)[nH]3)C2)C1)N1CC2(C1)CN(S(=O)(=O)NC1(C(F)(F)F)CC1)C2` [compound 215], for which the IC50 is 17.4 nM. `O=C(N1CC2(CC(c3nnc(C4CC4)[nH]3)C2)C1)N1CC2(C1)CN(S(=O)(=O)NCC1(C(F)(F)F)CC1)C2` [compound 216]: the IC50 worked out at 11 nM. The figure for `O=C(N1CC2(CC(c3nnc(C4CC4)[nH]3)C2)C1)N1CC2(C1)CN(c1cnc(C(F)(F)F)cn1)C2` [compound 218] is 172 nM. The figure for `O=C(N1CC(CN2CCC(F)(F)CC2)C1)N1CC2(CC(c3nnc(C4CC4)[nH]3)C2)C1` [compound 219] is 923 nM. The value for `O=C(N1CC2(CC(c3nnc(C4CC4)[nH]3)C2)C1)N1CC2(CC(N3CCS(=O)(=O)CC3)C2)C1` [compound 220] was 207 nM; that for `O=C(N1CC2(CC(NCC3(C(F)(F)F)CC3)C2)C1)N1CC2(CC(c3nnc(C4CC4)[nH]3)C2)C1` [compound 221] was 8.51 nM. Consider `O=C(N1CC2(CC(NC(=O)C3(C(F)(F)F)CC3)C2)C1)N1CC2(CC(c3nnc(C4CC4)[nH]3)C2)C1` [compound 222], for which the IC50 was 40.7 nM. The value for `O=C(N1CC2(CC(NS(=O)(=O)c3ccc(C(F)(F)F)cc3)C2)C1)N1CC2(CC(c3nnc(C4CC4)[nH]3)C2)C1` [compound 223] was 0.33 nM; that for `O=C(N1CC2(CC(NS(=O)(=O)c3ccccc3C(F)(F)F)C2)C1)N1CC2(CC(c3nnc(C4CC4)[nH]3)C2)C1` [compound 224] was 0.7 nM. In the case of `CC(C)(C)CS(=O)(=O)NC1CC2(C1)CN(C(=O)N1CC3(CC(c4nnc(C5CC5)[nH]4)C3)C1)C2` [compound 225], the IC50 came out at 3.67 nM. The figure for `O=C(N1CC(c2ccc(C3(C(F)(F)F)CC3)cc2)C1)N1CC2(CC(c3nnc(C4CC4)[nH]3)C2)C1` [compound 226] is 0.11 nM; for `O=C(N1CC(c2ccc(C3(C(F)(F)F)CC3)cc2)C1)N1CC2(CC(c3nnc(C4(O)CC4)[nH]3)C2)C1` [compound 227] it is 0.91 nM; for `O=C(N1CC(c2ccc(C3(C(F)(F)F)CC3)cc2)C1)N1CC2(CC(c3nnc(C(O)C(F)(F)F)[nH]3)C2)C1` (centres unmarked) [compound 228] it is 14.8 nM.

In the case of `O=C(N1CC(c2ccc(C3(C(F)(F)F)CC3)nc2)C1)N1CC2(CC(c3nnc(C4CC4)[nH]3)C2)C1` [compound 231], the IC50 worked out at 3.39 nM. In turn, `O=C(N1CC(c2ccc(C3(C(F)(F)F)CC3)nc2)C1)N1CC2(CC(c3nnc(C4(O)CC4)[nH]3)C2)C1` [compound 232] displayed an IC50 of 43.6 nM.

On to `O=C(N1CC(c2cnc(C3(C(F)(F)F)CC3)cn2)C1)N1CC2(CC(c3nnc(C4CC4)[nH]3)C2)C1` [compound 233], for which it took 13.8 nM to reach half-maximal inhibition (IC50).

Regarding `O=C(N1CC(c2ccc(C3(C(F)(F)F)CC3)nn2)C1)N1CC2(CC(c3nnc(C4CC4)[nH]3)C2)C1` [compound 234], it took 139 nM to reach half-maximal inhibition (IC50). `O=C(N1CC(c2cnc(C3(C(F)(F)F)CC3)nc2)C1)N1CC2(CC(c3nnc(C4CC4)[nH]3)C2)C1` [compound 235]: the IC50 was 21.9 nM.

In turn, `O=C(N1CC(c2ccc(C3(C(F)(F)F)CC3)cn2)C1)N1CC2(CC(c3nnc(C4CC4)[nH]3)C2)C1` [compound 236] gave an IC50 of 4.52 nM.

By IC50 is commonly meant the concentration that inhibits the measured activity by half. Read a high IC50 as weaker potency.

The record behind these values is patent publication US20250099448A1, “HETEROCYCLIC COMPOUNDS” (Hoffmann-La Roche Inc., priority 2022, published 2025).
